Assay results reported in patent US7582786B2, “Synthetic catalytic free radical scavengers useful as antioxidants for prevention and therapy of disease” (Eukarion Inc., priority 1996, dated 2009).

Tests used:
[1] = SOD activity, inhibition of cytochrome C reduction by xanthine plus xanthine oxidase (Example 1); assay type: biochemical; conditions: Example 1, cytochrome C reduction
Method: The SOD activity of the compounds was determined by evaluating the inhibition of the reduction of cytochrome C produced by the oxygen free radical generating system, xanthine plus xanthine oxidase. Cytochrome C reduction is monitored spectrophotometrically at 550 nm according to the method described in Darr et al. (1987) Arch. Biochem. Biophys. 258: 351, incorporated herein by reference. The concentration of xanthine oxidase is adjusted such that it produces a rate of reduction of cytochrome C at 550 nm of 0.025 absorbance unit per minute. Under these conditions, the amount of SOD activity required to inhibit the rate of cytochrome C reduction by 50 percent (i.e., to a rate of 0.0125 absorbance unit per minute) is defined as one unit of activity. Salen-metal complexes are identified as antioxidants if they have at least 0.1 unit of activity at a concentration of 1 mM under these standard assay conditions.

[2] = Catalase activity, decomposition of hydrogen peroxide monitored at 240 nm (Example 1); assay type: biochemical; conditions: Example 1, H2O2 decomposition at 240 nm
Method: Catalase activity was measured using a spectrophotometric method in which the decomposition of hydrogen peroxide is monitored at 240 nm according to the method of Aebi et al. (1984) Methods Enzymol. 105: 121, incorporated herein by reference. One unit of catalase activity is defined as the amount of enzyme (or salen-metal complex) required to decompose 1 μmole of hydrogen peroxide in one minute.

brain microsomes = test: Lipid peroxidation induced in brain microsomes by iron and ascorbate (MDA)
Description: A series of salen-metal complexes were synthesized and their catalytic activities determined. […] FIGS. 24A-24H show structural formulae of further salen-metal compounds which were synthesized and evaluated.

Compound | SOD Activity [1] [units/mM] | Catalase Activity [2] [units/mM] | inhibition of lipid peroxidation in brain microsomes (brain microsomes)
CC(C)(C)c1cc2c(c(C(C)(C)C)c1)[O][Mn]([Cl])[O]c1c(cc(C(C)(C)C)cc1C(C)(C)C)C=NC1CCCCC1N=C2 (stereo not shown) [Compound C10] | 69 | 179 | 
CC(C)(C)c1cc(Cl)cc2c1[O][Mn]([Cl])[O]c1c(cc(Cl)cc1C(C)(C)C)C=NC1CCCCC1N=C2 (stereo not shown) [Compound C11] | 101 | 46 | 
COc1cc2c(c(C(C)(C)C)c1)[O][Mn]([Cl])[O]c1c(cc(OC)cc1C(C)(C)C)C=NC1CCCCC1N=C2 (stereo not shown) [Compound C12] | 4397 | 144 | 
Vitamin E |  |  | inhibition of lipid peroxidation
